Reference: patent US20240189312A1, “COMPOSITION FOR TREATING ACUTE BRAIN INJURY OR NEURODEGENERATIVE DISEASE, METHOD OF MAKING, AND USE THEREOF” (priority 2022, published 2024)
Entries after “also recorded” stand apart in the source; their conditions may differ.

How the values were obtained:
[1] = target: CYP46A (Homo sapiens, UniProt Q9Y6A2); conditions: cited from earlier work
[2] = tested on: NMDA receptor; conditions: cited from earlier work
[3] = tested on: primary cultured mouse cortical neurons; assay: OGD toxicity (neuronal loss, LDH release); type: cell-based; conditions: MK-801
Procedure: (§1) Cultures of mouse primary cortical neurons were prepared as described previously and modified [Leng T D, Lin J, Sun H W, Zeng Z, O'Bryant Z, Inoue K, et al. Local anesthetic lidocaine inhibits TRPM7 current and TRPM7-mediated zinc toxicity. CNS Neurosci Ther 2015; 21: 32-9.]. The use of mice for neuronal cultures was approved by the Institutional Animal Care and Use Committee of Morehouse School of Medicine. Briefly, the brains of fetuses (embryonic day 16) were removed quickly from anesthetized pregnant Swiss mice and placed in cold Ca2+/Mg2+-free PBS. Cerebral cortices were dissected and incubated with 0.05% trypsin-EDTA for 10 min at 37° C., followed by trituration. Cells were plated in 35-mm poly-L-ornithine-coated culture dishes at a density of 1×10^6 cells. […]
(§2) LDH release was measured using a cytotoxicity detection kit (Cat. No. 11644793001, Roche Diagnostics) according to the manufacturer's instruction, as described in previous studies [Leng T D, Lin J, Sun H W, Zeng Z, O'Bryant Z, Inoue K, et al. Local anesthetic lidocaine inhibits TRPM7 current and TRPM7-mediated zinc toxicity. […] The absorbance at 492 and 620 nm was measured by spectrometer (SpectraMax Plus, Molecular devices, Sunnyvale, CA, USA). LDH release was determined based on subtracting absorbance at 620 nm from that at 492 nm.

[4] = tested on: primary cultured mouse cortical neurons; assay: NMDA toxicity (neuronal loss, LDH release); type: cell-based; conditions: MK-801 10 μM
Procedure: as §1, §2

[5] = tested on: select neurons; conditions: cited from earlier work
[6] = target: CYP46A1 (Homo sapiens, UniProt Q9Y6A2); conditions: cited from earlier work
[7] = tested on: MCAO induced ischemic brain injury; assay: MCAO ischemic stroke model, TTC staining; type: in vivo, mice; conditions: ICV 40 μM stock, 1 μl, 3 h before 45 min MCAO, TTC at 24 h
[8] = tested on: 5XFAD mice; assay: Alzheimer's disease model in 5XFAD mice; conditions: 5XFAD test mice
Procedure: 5XFAD mice are obtained. 5XFAD transgenic mice express 5 human familial Alzheimer's disease (FAD) mutants in amyloid-beta precursor protein (APP) and presenilin 1 (PS1) driven by the Thy1 promoter. […] Experimental 5XFAD mice are obtained by crossing heterozygous transgenic mice with C57BL/6 wild-type breeders. Wild-type littermates are used as controls and randomly allotted to each experiment. Male mice are used in all experiments. All mice are housed in a standard animal facility with a 12 h alternating light/dark cycle.
Control mice are administered a placebo.
A Barns maze protocol is performed. Briefly, the apparatus is a revolvable white acrylic disc elevated from the floor with 18 holes equally spaced along the perimeter of the circle and positioned in a brightly light. One hole is selected as the escape target hole, and a dark escape chamber is placed under the target hole consistent for each trial. Mice are allowed to freely explore on the platform for 5 min without the escape chamber, and habituated to the escape chamber for 2 min on two consecutive days. In the training phase, a session of 2 trials is performed by each mouse. Each mouse is covered under a nontransparent cylinder placed in the center of the maze. After 15 s, the cylinder is gently removed to allow mouse to explore the maze for 180 s until the target hole is found. […] The maze and the escape chamber are wiped with 70% ethanol. The mouse is identified to find the target chamber when the back of the mice crossed the target hole. The mouse is considered to have entered the target chamber if the entire body is on the platform. The primary latency that mice took to find the target hole is documented for each trial. Two trials per day are performed for eight days. For the probe test, memory retention is assessed 5 days after the last training trial. The duration of the probe trial is 90 s. […] The position of the target hole is the same as that in the training period. The primary latency to find the target hole and time in the target quadrant is analyzed by Anymaze software.
A T maze protocol is performed. Briefly, before performing the task, the diet of mice is restricted daily to hold 80% to 85% of their primary body weight throughout the task. The T maze apparatus is placed in a quiet room, and light intensity is held at a constant level. During the training, a forced choice is followed by a free choice for each trial. In the forced-choice phase, a food pellet is placed in either the left or right choice arm. The door to the choice arm with food pellet is opened, while the other choice arm is closed. The mouse is allowed to consume the pellet. When the pellet is consumed, the mouse is returned to the start arm. After the forced choice is completed, the free choice is initialized. During the free choice, all doors are open; the mouse is allowed to freely enter one of two arms. If the mouse entered the same arm as in the forced-choice phase, the trial is considered to result in an “error,” and the pellet is removed. If the mouse entered the opposite arm as in the forced-choice phase, the trial is considered to have a “correct” result, and the mouse is rewarded with a food pellet. Following each session, the apparatus is cleaned with 70% ethanol. Six consecutive trials are performed in a session per day. The percentage of correct responses is calculated in each session.
Motor activity and anxiety is studied in the open field test. […] The mouse activity is monitored under an infrared camera for 5 min.

CYP46A, sequence (Q9Y6A2 whole entry): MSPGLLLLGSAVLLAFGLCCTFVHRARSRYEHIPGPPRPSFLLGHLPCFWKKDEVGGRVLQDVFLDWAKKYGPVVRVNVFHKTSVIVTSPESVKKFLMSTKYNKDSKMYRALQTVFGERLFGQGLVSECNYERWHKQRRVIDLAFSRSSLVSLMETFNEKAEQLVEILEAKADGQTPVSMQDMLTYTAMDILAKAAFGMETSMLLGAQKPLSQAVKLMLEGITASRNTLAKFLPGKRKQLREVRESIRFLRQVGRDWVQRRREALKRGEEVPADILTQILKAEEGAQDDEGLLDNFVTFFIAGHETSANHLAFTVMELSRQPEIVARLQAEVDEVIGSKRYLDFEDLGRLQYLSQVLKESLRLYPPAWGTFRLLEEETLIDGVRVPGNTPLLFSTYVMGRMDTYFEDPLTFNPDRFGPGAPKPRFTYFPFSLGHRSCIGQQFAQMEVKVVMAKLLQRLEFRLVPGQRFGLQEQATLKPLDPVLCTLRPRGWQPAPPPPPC
CYP46A1, sequence (Q9Y6A2 whole entry, species assumed): as the sequence (Q9Y6A2 whole entry) above

Structure (SMILES): N[C@@H]1C[C@H]1c1ccccc1 (racemic) [tranylcypromine]
- affinity for CYP46A [1]: nanomolar affinity

Structure (SMILES): C[C@]12N[C@H](Cc3ccccc31)c1ccccc12 [MK-801, dizocilpine]
- Aβ[1-42]-triggered excitotoxicity via the NMDA receptor [2]: can be prevented
- inhibition of 24S-HC increased OGD toxicity [3]: completely inhibited
- inhibition of 24S-HC increased OGD toxicity ([3]; listed as MK801): completely abolishes the toxicity of 24S-HC
- inhibition of 24S-HC increased NMDA toxicity [4]: completely inhibited
- inhibition of 24S-HC increased NMDA toxicity ([4]; listed as MK801): completely abolishes the toxicity of 24S-HC
- cytoplasmic vacuoles in select neurons [5]: causes cytoplasmic vacuoles in select neurons

Structure (SMILES): Clc1ccccc1C(c1ccccc1)(c1ccccc1)n1ccnc1 [clotrimazole]
- affinity for CYP46A [1]: nanomolar affinity

Structure (SMILES): S=C(NC1CCCCC1)N1CCC(c2cnc[nH]2)CC1 [thioperamide]
- affinity for CYP46A [1]: nanomolar affinity

Structure (SMILES): C[C@@H](c1ncncc1F)[C@](O)(Cn1cncn1)c1ccc(F)cc1F [voriconazole]
- synthesis of 24S-HC in vitro ([6]; at ˜1 M (so in the source)): almost completely inhibit
- inhibitor of CYP46A1 [6]: potent inhibitor
- ischemic brain injury (infarction, TTC staining) [7]: reduces ischemic brain injury
- ischemic brain injury (infarction, TTC staining) ([7]; listed as Vori): dramatically reduced ischemic brain injury; also recorded: protects against 45 min MCAO induced ischemic brain injury
- affinity for CYP46A [1]: nanomolar affinity
- Aβ deposition [8]: attenuate Aβ deposition
- cognitive functions [8]: improve cognitive functions
- microgliosis [8]: decrease microgliosis
- neuroinflammation [8]: reduce neuroinflammation
- synapse loss and neuronal loss [8]: reversed
